Laboratory results reported in patent US20240358727A1, “MICROSCALE THERMOPHORESIS TO EVALUATE CHANNEL LIPID INTERACTIONS AND METHODS OF TREATING NAV CHANNELS RELATED DISEASES” (Northeastern University, priority 2023, published 2024).
“Also recorded” adds a separate entry of the source.

What was measured:
Nav1.5 = molecular target: T1, Nav1.5 (Homo sapiens, UniProt Q14524); assay: Whole-cell patch clamp of Nav1.5 stable cells with optogenetic PI-phosphatases and diC8PI(4,5)P2 in the pipette; type: cell-based; settings: for left shift in the I-V relationship / shift in V½SSI / shift in V½act / V½SSI / V½act: 200 μM diC8PI(4,5)P2; for current density: 200 μM diC8PI(4,5)P2, −55 mV; for τinact / ILATE: diC8PI(4,5)P2; for ILATE: % of Ipeak
T1 construct: expressed in transfected cells
Description: Nav1.5 channels were studied with Navβ1 (SCNIB, isoform b; NM_001037) in pRAT, a CMV driven vector. N-terminal CRY2-tagged pseudojanin in pMaX(+) vector was generated by Genscript (Piscataway, NY). Purified diC8PI(4,5)P2 was purchased from Echelon Biosciences.
HEK293-T cells were purchased from American Type Culture Collection (ATCC, catalog no. CRL-3216). The cells were cultured in 60-mm dishes in Dulbecco's Modified Eagle Medium (DMEM) (Sigma-Aldrich) that was supplemented with a combination of 100 units/ml of penicillin, 100 μg/ml of streptomycin and 10% Fetal Bovine Serum (FBS). Stable cells were cultured in previously mentioned DMEM, penicillin, streptomycin, and FBS medium with addition of 2 μg/ml puromycin, 5 μg/ml blasticidin, 200 μg/ml geneticin (G418). Both cell lines were incubated at 5% CO2 at 37° C. 24 hours before transfection cells from either cell lines were seeded on glass coverslips in 35-mm dishes. Both cell lines were transfected in OptiMEM using polyethyleneimine (PEI) at a 1 μg of DNA: 4 μL PEI to 1 μg of DNA: 6 μL PEI ratio for 2-4 hours. HEK293-T cells were transfected with 1.5 μg of channel DNA and 1 μg of the beta subunit alone and alongside light-activated constructs. Stable cells were transfected with 1p g of the beta subunit alone and alongside light-activated constructs. Electrophysiology recordings were performed within 24-48 hours after transfection at room temperature.
Both the HEK293-T, and Nav1.5 stable cells were studied under whole-cell patch clamp. Sodium currents were recorded using the Tecella Pico-2 amplifier (Tecella) and WinWCP software (University of Strathclyde) at a low pass (Bessel) filter of 9 kHz and sampled at 50 kHz frequencies. The borosilicate glass (Clark Kent) patch pipettes were pulled to a resistance of 2-4 MQ using the vertical puller (Narishige) when filled with internal solution. The internal solution contained (in mM): 60 CsCl, 80 CsF, 2 MgCl2·6H2O, 10 EGTA, 5 HEPES, 5 Na2ATP, pH 7.4 with CsOH. Cells were perfused through a multichannel gravity-driven perfusion manifold (Warner) with an extracellular solution containing (in mM): 130 NaCl, 5 CsCl, 1.2 MgCl2·6H2O, 1.5 CaCl2), 8 Glucose, 10 HEPES. Cells with a series resistance less than 15 MQ were studied.
Current-voltage relationships were evoked by a 250-ms test pulse between −80 mV to 35 mV, in 5 mV increments. Steady-state inactivation was studied by holding cells at −120 mV and then comparing currents that were evoked by a 50 ms test pulse between −120 mV and −20 mV to those evoked by a 500 ms pre-pulse to 30 mV, in 10 mV increments. Normalized peak currents were then plotted against pre-pulse potential (mV). To determine voltage-dependence, the data was normalized and plotted against the driving force and fitted to a Boltzmann function, I=Imax(1+exp[V−V1/2/k]), where Imax is maximum current and k is the slope factor to generate normalized conductance-voltage (G-V) relationship. The ILATE was evoked by a single test pulse between −90 mV and −20 mV. ILATE was calculated from the last 10 ms of this 250 ms test pulse. From this recording protocol, the time constant for inactivation (T) was determined from a mono-exponential fit of normalized current amplitude using It=Imax+A [e^−t/τ], A is amplitude and t is time. All whole-cell currents were normalized to the capacitance of cell.
Experiments were set up similar to those in Gada et al (2023). Optogenetic studies were conducted simultaneously alongside patch-clamp. Here the photoactivation of cells was conducted in the epifluorescence-mode to utilize continuous excitation from a broad-spectrum LED (Excelitas) through a 448/20 nm filter (Chroma), via a 20× objective lens (Olympus). A photometer (ThorLabs) was used to measure the light output which measured at 50 mW/cm^2. […]

Nav1.5-K1493E = molecular target: T2, Nav1.5-K1493E (Homo sapiens, UniProt Q14524, K1493E); assay: Whole-cell ILATE of Nav1.5-K1493E with CRY2-5ptase; type: cell-based; settings: 200 μM diC8-PI(4,5)P2 in pipette
T2 construct: expressed in transfected cells; HEK293T
Text: FIGS. 31A-31D show representative currents from Nav1.5-K1493E showing enhanced ILATE that is further augmented by activation of CRY2-5ptase.
Multiple dysrhythmic disorders are associated with mutations in Nav1.5. Nav1.5-E1784K is the most common variant and is associated with LQT3, BrS, and sinus node dysfunction. E1784K is in the proximal C-terminal domain where it disrupts an interaction with K1493 (DIII-DIV linker) that alters channel gating and increases ILATE. The complementary mutation, K1493E also augments ILATE. […] These findings indicate a potential role for PI(4,5)P2 in the mechanism of, at least some, Nav1.5 disease mutants.

[1] = 200 μM diC8PI(4,5)P2 in pipette
[2] = CRY2-5POCRL + CRY2-Sac2, BL vs control
[3] = CRY2-5POCRL + CRY2-Sac2, control (before BL)
[4] = CRY2-5POCRL, control (before BL)
[5] = CRY2-5POCRL, diC8PI(4,5)P2 enriched vs BL without diC8PI(4,5)P2

CCCCCCCC(=O)OC[C@H](COP(=O)(O)O[C@@H]1[C@H](O)[C@H](O)[C@@H](OP(=O)(O)O)[C@H](OP(=O)(O)O)[C@H]1O)OC(=O)CCCCCCC [diC8-PIP2]
effect on CRY2-5POCRL (CRY2-5P) dephosphorylation effects (Nav1.5; [1]): partially opposes; also recorded: partially reverses
effect on CRY2-5POCRL/Sac2 dephosphorylation effects (activation, SSI) (Nav1.5; [1]): partially opposes
left shift in the I-V relationship (Nav1.5; CRY2-5POCRL + CRY2-Sac2, BL vs before BL): −1.87 mV
shift in V½SSI (Nav1.5; [2]): −9.1±1.62 mV
shift in V½act (Nav1.5; [2]): −1.87±1.52 mV
V½SSI (Nav1.5; CRY2-5POCRL + CRY2-Sac2, BL): −80.48±1.75 mV
V½act (Nav1.5; CRY2-5POCRL + CRY2-Sac2, BL): −53.17±1.49 mV
current density (Nav1.5; CRY2-5POCRL + CRY2-Sac2, BL): −203.83±59.93 pA/pF
V½SSI (Nav1.5; [3]): −71.75±1.84 mV
V½act (Nav1.5; [3]): −51.30±1.7 mV
effect on changes in window current (Nav1.5; CRY2-5POCRL + CRY2-Sac2, diC8PI(4,5)P2): does not oppose
difference in V½act (Nav1.5; CRY2-5POCRL + CRY2-Sac2, diC8PI(4,5)P2 enriched before BL vs BL without diC8PI(4,5)P2): −6.518 mV
difference in V½SSI (Nav1.5; CRY2-5POCRL + CRY2-Sac2, diC8PI(4,5)P2 enriched vs BL without diC8PI(4,5)P2): −8.73±2.61
current density (Nav1.5; CRY2-5POCRL + CRY2-Sac2, without BL): −80.94±28.21 pA/pF
shift in V½SSI (Nav1.5; CRY2-5POCRL, BL vs control): −0.9383±2.01 mV
shift in V½act (Nav1.5; CRY2-5POCRL, BL vs control): −8.61±0.77 mV
V½SSI (Nav1.5; CRY2-5POCRL, BL): −72.13±1.53 mV
V½act (Nav1.5; CRY2-5POCRL, BL): −55.90±2.00 mV
left shift in the I-V relationship (Nav1.5; CRY2-5POCRL, BL): ~8.61 mV
τinact (Nav1.5; CRY2-5POCRL, BL): 1.68 ± 0.15 ms
ILATE (Nav1.5; CRY2-5POCRL, BL): 0.64±0.25%
V½SSI (Nav1.5; [4]): −73.07±1.54 mV
V½act (Nav1.5; [4]): −47.29±1.77 mV
τinact (Nav1.5; [4]): 1.24 ± 0.3 ms
ILATE (Nav1.5; [4]): 0.08±0.025%
difference in V½act (Nav1.5; CRY2-5POCRL, diC8PI(4,5)P2 enriched before BL vs BL without diC8PI(4,5)P2): ~6.768±2.420 mV
difference in ILATE (Nav1.5; [5]): 2.139±0.5794
difference in V½SSI (Nav1.5; [5]): −6.518 mV
difference in τinact (Nav1.5; [5]): 1.345 ± 0.3918 ms
effect on CRY2-PJ dephosphorylation effect on voltage-dependence of inactivation (SSI) (Nav1.5; diC8PI(4,5)P2 enriched vs depleted): opposed; also recorded: partially opposes
effect on CRY2-PJ dephosphorylation effects on Nav1.5 (Nav1.5; diC8PI(4,5)P2 in pipette): did not oppose; also recorded: does not oppose
effect on Nav1.5-K1493E ILATE (Nav1.5-K1493E): abolishes; also recorded: opposes
effect on further increase in ILATE on activation of CRY2-5ptase (Nav1.5-K1493E): precluded
